The results in this text go back to article PMC9867526, “Drug Metabolism of Hepatocyte-like Organoids and Their Applicability in In Vitro Toxicity Testing” (Molecules, 2023).

The subject of one series is HL-ICOs. In words: Cytotoxicity (CellTiter-Glo ATP viability) in hepatocyte-like intrahepatic cholangiocyte organoids, 48 h exposure. The format is cell-based, human. The method, then: The cell suspension was cultured in MatrigelTM (Corning, New York, NY, USA) droplets in expansion medium (EM) until organoids were formed, as previously described. EM consisted of Advanced DMEM/F12 (Life Technologies) supplemented with 1% (v/v) penicillin-streptomycin (Life Technologies), 1% (v/v) GlutaMax (Life Technologies), 10 mM HEPES (4-(2-hydroxyethyl)-1-piperazineethanesulfonic acid, Life Technologies), 2% (v/v) B27 supplement without vitamin A (Invitrogen, Carlsbad, CA, USA), 1% (v/v) N2 supplement (Invitrogen), 10 mM nicotinamide (Sigma-Aldrich, St Louis, MO, USA), 1.25 mM N-acetylcysteine (Sigma-Aldrich), 10% (v/v) R-spondin-1 conditioned medium (the Rspo1-Fc-expressing cell line was a kind gift from Calvin J. Kuo), 10 μM forskolin (Sigma-Aldrich), 5 μM A83-01 (transforming growth factor beta inhibitor; Tocris Bioscience, Bristol, UK), 50 ng/mL EGF (Invitrogen), 25 ng/mL HGF (Peprotech, Rocky Hill, NJ, USA), 0.1 μg/mL FGF10 (Peprotech) and 10 nM recombinant human ([…])-gastrin I (Sigma-Aldrich). Medium was changed twice a week. Passaging occurred every 7-10 days at ratios ranging between 1:2 and 1:4. All cultures were kept in a humidified atmosphere of 95% air and 5% CO2 at 37 °C. Organoids were primed for differentiation with BMP7 (25 ng/mL, Peprotech) through spiking EM 3 days before shifting to hepatic differentiation medium (DM). DM consisted of EM without R-spondin-1, FGF10, and nicotinamide, supplemented with 100 ng/mL FGF19 (Peprotech), 500 nM A83-01 (Tocris Bioscience), 10 μM DAPT (Selleckchem, Munich, Germany), 25 ng/mL BMP-7 (Peprotech), and […] (Sigma-Aldrich). Organoids were kept on DM for up to 12 days. For exposure experiments, differentiation assay medium was prepared to reduce antioxidants in the medium. This assay medium consisted of DMEM GlutaMAX instead of DMEM-F12 medium complemented with the same components as differentiation medium excluding GlutaMAX, B27, and NAC. In 96-well format (cytotoxicity assay), 12,000 cells in 9 μL Matrigel per well were plated at the start of differentiation, and exposure was started at day 10 of differentiation for 48 h. In 24-well format (CYP activity assay), cells were densely plated in a fresh Matrigel droplet (50 μL) upon the start of differentiation, and cells were exposed to the CYP substrate cocktail on day 12 of differentiation. […] Cells plated in 96-well plates were exposed to a concentration range (six concentrations in 2x dilution) of five known hepatotoxic compounds for 48 h (single dose). Acetaminophen (CAS 103-90-2; 30 mM) and valproic acid (CAS 1069-66-5; 10 mM) were directly dissolved in assay medium (previously described for each hepatic cell model). […] For the latter, vehicle control (0.5% (v/v) DMSO) was used in the exposure experiments. All chemicals were obtained from Sigma-Aldrich, unless stated otherwise. […] The viability of exposed cells was determined by cellular ATP levels using the CellTiter-Glo Luminescent Cell Viability Assay (Promega, Madison, WI, USA). The CellTiter Glo reagent was prepared according to the manufacturer's instructions. Briefly, the culture plate was equilibrated at room temperature for 30 min. Medium was removed from the plate, after which phosphate-buffered saline (PBS) and the CellTiter Glo reagent were added to each well in equal volumes. The plate was mixed for 2 min on an orbital shaker and incubated for an additional 10 min at room temperature. Luminescence was measured on the TriStar2 (Berthold Technologies, Bad Wildbad, Germany), and samples were normalized to (vehicle) control.

The subject of a further series is HepaRG. In words: Cytotoxicity (CellTiter-Glo ATP viability) in HepaRG cells, 48 h exposure. Type of series: cell-based. The note with it: Homo sapiens. On the procedure: Undifferentiated HepaRG cells were purchased from Biopredic International (Saint Grégoire, France). Cells were cultured (passage number between p18 and p28) in T75 flasks in culture medium consisting of William’s E medium (without phenol red; Thermo Fisher Scientific, Waltham, MA, USA) supplemented with 1% (v/v) penicillin-streptomycin (Thermo Fisher Scientific), 10% (v/v) fetal bovine serum (FBS; Thermo Fisher Scientific), 50 µM hydrocortisone 21-hemisuccinate (Sigma-Aldrich, St Louis, MO, USA), 2 mM GlutaMax (Thermo Fisher Scientific) and 5 µg/mL insulin (Sigma-Aldrich). For differentiation, cells were cultured for 7–10 days and upon confluence, the monolayer was switched to differentiation medium (culture medium supplemented with 1% (v/v) DMSO). After differentiation, cells were trypsinized using TrypLE (Thermo Fisher Scientific) and seeded at a density of 65,000 cells/well in a 96-well plate (cytotoxicity assay) or 130,000 cells/well in a 24-well plate (CYP activity assay). Cells were allowed to attach for 24 to 48 h. Before exposure, cells were washed with assay medium (culture medium without FBS), after which exposure was started. Cells plated in 96-well plates were exposed to a concentration range (six concentrations in 2x dilution) of five known hepatotoxic compounds for 48 h (single dose). Acetaminophen (CAS 103-90-2; 30 mM) and valproic acid (CAS 1069-66-5; 10 mM) were directly dissolved in assay medium (previously described for each hepatic cell model). […] For the latter, vehicle control (0.5% (v/v) DMSO) was used in the exposure experiments. All chemicals were obtained from Sigma-Aldrich, unless stated otherwise. […] The viability of exposed cells was determined by cellular ATP levels using the CellTiter-Glo Luminescent Cell Viability Assay (Promega, Madison, WI, USA). The CellTiter Glo reagent was prepared according to the manufacturer’s instructions. Briefly, the culture plate was equilibrated at room temperature for 30 min. Medium was removed from the plate, after which phosphate-buffered saline (PBS) and the CellTiter Glo reagent were added to each well in equal volumes. The plate was mixed for 2 min on an orbital shaker and incubated for an additional 10 min at room temperature. Luminescence was measured on the TriStar2 (Berthold Technologies, Bad Wildbad, Germany), and samples were normalized to (vehicle) control.

Another series relates to PHH. In words: Cytotoxicity (CellTiter-Glo ATP viability) in primary human hepatocytes, 48 h exposure. Type of series: cell-based. The note with it: Hepatocyte. The method, then: LiverPool cryoplateable hepatocytes (pool of 10 donors, mixed gender; BioIVT, Hicksville, NY, USA) were cultured in a collagen I (Sigma-Aldrich, St Louis, MO, USA) sandwich in INVITROGRO CP medium (BioIVT) complemented with the TORPEDO Antibiotic mix (BioIVT). Seeding density was 49,000 cells/well in a 96-well plate (cytotoxicity assay) or 350,000 cells/well in a 24-well plate (CYP activity assay), according to the manufacturer’s instructions. Exposure of the hepatocytes was started 48 h after seeding. For exposure assays, INVITROGRO HI medium (BioIVT) was used, as recommended. Cells plated in 96-well plates were exposed to a concentration range (six concentrations in 2x dilution) of five known hepatotoxic compounds for 48 h (single dose). Acetaminophen (CAS 103-90-2; 30 mM) and valproic acid (CAS 1069-66-5; 10 mM) were directly dissolved in assay medium (previously described for each hepatic cell model). […] For the latter, vehicle control (0.5% (v/v) DMSO) was used in the exposure experiments. All chemicals were obtained from Sigma-Aldrich, unless stated otherwise. […] The viability of exposed cells was determined by cellular ATP levels using the CellTiter-Glo Luminescent Cell Viability Assay (Promega, Madison, WI, USA). The CellTiter Glo reagent was prepared according to the manufacturer’s instructions. Briefly, the culture plate was equilibrated at room temperature for 30 min. Medium was removed from the plate, after which phosphate-buffered saline (PBS) and the CellTiter Glo reagent were added to each well in equal volumes. The plate was mixed for 2 min on an orbital shaker and incubated for an additional 10 min at room temperature. Luminescence was measured on the TriStar2 (Berthold Technologies, Bad Wildbad, Germany), and samples were normalized to (vehicle) control.

Where [1] appears, read: HL-ICOs, range over the four ICO donors, 48 h.
Setting [2] is: Homo sapiens, 48 h, HL-ICOs, range over the four ICO donors.
Setting [3] is: Homo sapiens, HL-ICOs differentiation day 12, ICO donor in first HL-ICO column, 48 h single dose, cell viability (ATP).
The mark [4] stands for this setting: Homo sapiens, HL-ICOs differentiation day 12, ICO donor in fourth HL-ICO column, 48 h single dose, cell viability (ATP).
Where [5] appears, read: Homo sapiens, HL-ICOs differentiation day 12, ICO donor in second HL-ICO column, 48 h single dose, cell viability (ATP).
Where [6] appears, read: Homo sapiens, HL-ICOs differentiation day 12, ICO donor in third HL-ICO column, 48 h single dose, cell viability (ATP).
Where [7] appears, read: 48 h single dose, median of three independent experiments, minimum and maximum EC50 within brackets.
The mark [8] stands for this setting: range of three independent experiments.
[9] abbreviates: PHH (pool of 10 donors, collagen I sandwich), 48 h single dose, cell viability (ATP).

With `CC(=O)Nc1ccc(O)cc1` [Acetaminophen], the EC50 with HL-ICOs (setting [1]) is 24000 to 24900 µM; in the series with HL-ICOs (setting [2]), 24000 to 26800 µM; in the series with HL-ICOs (setting [3]), 24900 µM; with HL-ICOs (setting [4]), 24000 µM; in the series with HL-ICOs (setting [5]), 24600 µM; with HL-ICOs (setting [6]) it was 26800 µM. Besides, the EC50 in the series with HepaRG (setting [7]) is 4040 µM; in the series on HepaRG (setting [8]) it was 3460 to 6040 µM; in the series with PHH (PHH), 4190 µM; in the series on PHH (setting [9]), 4190 µM.
`O=C(O)Cc1ccccc1Nc1c(Cl)cccc1Cl` [Diclofenac]: the concentration giving a half-maximal response (EC50) with HL-ICOs (Homo sapiens, 48 h, HL-ICOs, the other three ICO donors, higher than highest tested concentration) is over 500 µM; in the series with HL-ICOs (setting [3]), over 500 µM; with HL-ICOs (setting [5]), over 500 µM; in the series with HL-ICOs (setting [6]), over 500 µM; in the series on HepaRG (setting [7]), 352 µM; with HepaRG (setting [8]), 272 to 435 µM. For the same compound, the concentration for a half-maximal effect (EC50) with PHH (setting [9]) worked out at 421 µM.
`C1CCC(C(CC2CCCCN2)C2CCCCC2)CC1` (stereo not shown) [Perhexiline]: in the series on HL-ICOs (HL-ICOs, three ICO donors, up to 31.5 µM, 48 h), the cytotoxicity entry was “no cytotoxicity”. Further, the 50% effective concentration (EC50) is over 31.5 µM with HL-ICOs (setting [3]); over 31.5 µM in the series on HL-ICOs (setting [4]); 9.68 µM with HL-ICOs (setting [5]); over 31.5 µM in the series with HL-ICOs (setting [6]); 26 µM with HepaRG (setting [7]); 10.5 to 26.4 µM in the series on HepaRG (setting [8]). Also, the EC50 in the series with PHH (setting [9]) is 8.07 µM.
Turning to `Cc1c(C)c2c(c(C)c1O)CCC(C)(COc1ccc(CC3SC(=O)NC3=O)cc1)O2` (stereo not shown) [Troglitazone], the EC50 was 23.1 to 90.8 µM with HL-ICOs (setting [1]); 23.1 to 90.8 µM in the series with HL-ICOs (setting [2]); 42.8 µM in the series on HL-ICOs (setting [3]); 24.4 µM in the series on HL-ICOs (setting [4]); 90.8 µM with HL-ICOs (setting [5]); 23.1 µM in the series with HL-ICOs (setting [6]). Further, the half-maximal effective concentration (EC50) in the series with HepaRG (setting [7]) was 45.1 µM; with HepaRG (setting [8]), 14.9 to 45.2 µM; with PHH (setting [9]), 57.1 µM.
With `CCCC(CCC)C(=O)O` [Valproic Acid], the EC50 is over 10000 µM in the series on HL-ICOs (setting [2]); over 10000 µM with HL-ICOs (setting [3]); over 10000 µM in the series on HL-ICOs (setting [4]); over 10000 µM in the series on HL-ICOs (setting [5]); over 10000 µM with HL-ICOs (setting [6]); 4580 µM with HepaRG (setting [7]). Further, the concentration for a half-maximal effect (EC50) in the series with HepaRG (setting [8]) was 4170 to 6070 µM; in the series with PHH (PHH), 9880 µM; in the series with PHH (setting [9]), 9880 µM.
